The test system of one series is Alternaria solani. Description: Fungicidal activity, fungi growth rate method, AS. The series is classed as cell-based. Particulars: Alternaria solani; 50 μg/mL; read-out: Fungicidal activity, inhibition, AS.
The next series has as its system Pellicularia sasakii. As to the kind of experiment: Fungicidal activity, fungi growth rate method, PS. Format: cell-based. The following applies: 50 μg/mL; read-out: Fungicidal activity, inhibition, PS.
The next series concerns wheat Gibberella zeae. Description: microbe, parasite or virus in culture. The following applies: Fusarium graminearum, read-out: Fungicidal activity, inhibition, GZ. Format: cell-based.
The test system of a further series is Botrytis cinerea. As to the kind of experiment: Fungicidal activity, fungi growth rate method, BC. Format: cell-based. Particulars: Botrytis cinerea; 50 μg/mL; read-out: Fungicidal activity, inhibition, BC.
Series [1] has as its system tobacco mosaic virus (TMV). As to the kind of experiment: Anti-TMV curative activity (treatment mode), live friction inoculation on tobacco seedlings. The series is classed as in vivo. Particulars: Tobacco mosaic virus, read-out: Anti-TMV activity, Curative effect (inhibition), 100 μg/mL, tobacco seedlings, checked on seventh day.
The test system of series [2] is tobacco mosaic virus (TMV). As to the kind of experiment: Anti-TMV inactivation activity (inactivation mode), compound mixed with TMV before inoculation of tobacco leaves. The following applies: Tobacco mosaic virus, read-out: Anti-TMV activity, Inactivation effect (inhibition). Format: in vivo.
The test system of the next series is Rhizoctonia cerealis. Description: Fungicidal activity, fungi growth rate method, RC. Format: cell-based. The following applies: Ceratobasidium cereale; 50 μg/mL; read-out: Fungicidal activity, inhibition, RC.
Series [3] concerns tobacco mosaic virus (TMV). Description: Anti-TMV protective activity (protection mode), live friction inoculation on tobacco seedlings. Format: in vivo. The following applies: Tobacco mosaic virus, read-out: Anti-TMV activity, Protection effect (inhibition).
For a further series, the system named is Sclerotinia sclerotiorum. Description: microbe, parasite or virus in culture. Format: cell-based. The following applies: Sclerotinia sclerotiorum; for inhibition at 50 µg/mL: 50 μg/mL.
Another series concerns Physalospora piricola. As to the kind of experiment: Fungicidal activity, fungi growth rate method, PP. Format: cell-based. The following applies: 50 μg/mL; read-out: Fungicidal activity, inhibition, PP.
Series [4] has as its system Phytophthora infestans (Mont) de Bary. Description: microbe, parasite or virus in culture. Particulars: Phytophthora infestans, read-out: Fungicidal activity, inhibition, PI. Format: cell-based.
Series [5] has as its system tobacco mosaic virus (TMV). As to the kind of experiment: Anti-TMV inducing activity (induction mode), tobacco seedlings. The following applies: Tobacco mosaic virus, read-out: Anti-TMV activity, Induction effect (inhibition), 100 μg/mL, tobacco seedlings. The series is classed as in vivo.
Another series relates to Cercospora arachidicola. Description: Fungicidal activity, fungi growth rate method, CA. The following applies: Mycosphaerella arachidis; 50 μg/mL; read-out: Fungicidal activity, inhibition, CA. The series is classed as cell-based.
[6] abbreviates: read-out: Fungicidal activity (inhibition) against SS: Sclerotinia sclerotiorum.
The mark [7] stands for this setting: read-out: Fungicidal activity, inhibition, SS.

≈ marks a conversion by molar mass, not a printed value. Read-outs that look alike come from different tables or passages of the source.

With `O=C(N/C(=C\c1cccc(C(F)(F)F)c1)C(=O)N1CCC(O)(c2ccc(Br)cc2)CC1)c1ccccc1` [Compound 21, (Z)-N-[1-[[4-(4-bromophenyl)-4-hydroxy-1-piperidinyl]carbonyl]-2-(3-trifluoromethylphenyl)ethenyl]benzamide], the melting point is 118 to 120 °C. In addition, the inhibition at 50 µg/mL in the series with Alternaria solani turned out to be 12%. For the same compound, in the series on Pellicularia sasakii, the inhibition at 50 µg/mL worked out at 17%. The inhibition at 50 µg/mL with wheat Gibberella zeae was found to be 19%. Also, in the series with Botrytis cinerea, the inhibition at 50 µg/mL came out at 8%. In addition, the inhibition at 100 µg/mL in [1] was found to be 35%. Besides, the inhibition at 100 µg/mL in series [2] amounted to 58%. The inhibition at 50 µg/mL in the series with Rhizoctonia cerealis was 24%. In addition, the inhibition at 100 µg/mL in series [3] came out at 46%. Also, the inhibition at 50 µg/mL in the series with Sclerotinia sclerotiorum (setting [6]) lay within 60 to 80%. Besides, the inhibition at 50 µg/mL in the series with Sclerotinia sclerotiorum (setting [7]) turned out to be 75%. The inhibition at 50 µg/mL in the series with Physalospora piricola was found to be 8%. Further, in [4], the inhibition at 50 µg/mL amounted to 2%. In addition, the inhibition at 100 µg/mL in [5] turned out to be 9%. In the series on Cercospora arachidicola, the inhibition at 50 µg/mL amounted to 25%.

In turn, `O=C(N/C(=C\c1ccccc1C(F)(F)F)C(=O)N1CCC(O)(c2ccc(Br)cc2)CC1)c1ccccc1` [Compound 22] showed a melting point of 149 to 151 °C. Moreover, in the series on Alternaria solani, the inhibition at 50 µg/mL was 12%. In the series on Pellicularia sasakii, the inhibition at 50 µg/mL came to 15%. In addition, the inhibition at 50 µg/mL in the series with wheat Gibberella zeae turned out to be 28%. Also, the inhibition at 50 µg/mL with Botrytis cinerea is 8%. Moreover, in [1], the inhibition at 100 µg/mL was 59%. In addition, in [2], the inhibition at 100 µg/mL amounted to 58%. In addition, in the series on Rhizoctonia cerealis, the inhibition at 50 µg/mL stood at 26%. Besides, in series [3], the inhibition at 100 µg/mL was 0%. In addition, the EC90 with Sclerotinia sclerotiorum (read-out: EC90 against S. sclerotiorum in vitro) worked out at 199 µg/mL (≈ 347 µM). Also, the inhibition at 50 µg/mL with Sclerotinia sclerotiorum (setting [6]) came out at 100%. In the series on Sclerotinia sclerotiorum (setting [7]), the inhibition at 50 µg/mL amounted to 100%. The inhibition at 50 µg/mL in the series on Physalospora piricola was 8%. In addition, the inhibition at 50 µg/mL in [4] worked out at 5%. The inhibition at 100 µg/mL in [5] worked out at 22%. Besides, the inhibition at 50 µg/mL with Cercospora arachidicola turned out to be 25%.

Compound `CC(C)(C)OC(=O)N1CCC(c2nc(/C=C(\NC(=O)c3ccccc3)C(=O)NCc3ccc(Br)cc3)cs2)CC1` [Compound 47, N-[(1Z)-2-[4-[2-[4-(1-Boc-piperidine)]thiazol]]-1-[[(4-bromophenylmethyl)amino]carbonyl]ethenyl]benzamide] returned a melting point of 101 to 103 °C. For the same compound, the inhibition at 50 µg/mL in the series with Alternaria solani was 36%. Further, in the series on Pellicularia sasakii, the inhibition at 50 µg/mL came out at 19%. The inhibition at 50 µg/mL in the series on wheat Gibberella zeae stood at 22%. The inhibition at 50 µg/mL in the series on Botrytis cinerea came out at 32%. In [1], the inhibition at 100 µg/mL was 56%. In addition, the inhibition at 100 µg/mL in series [2] turned out to be 0%. Besides, in the series on Rhizoctonia cerealis, the inhibition at 50 µg/mL came to 21%. The inhibition at 100 µg/mL in [3] was 41%. Further, the inhibition at 50 µg/mL in the series with Sclerotinia sclerotiorum (setting [6]) lay in the range of 80 to 95%. Also, the inhibition at 50 µg/mL in the series on Sclerotinia sclerotiorum (setting [7]) turned out to be 82%. Besides, in the series on Physalospora piricola, the inhibition at 50 µg/mL stood at 22%. Moreover, in series [4], the inhibition at 50 µg/mL is 20%. Also, the inhibition at 100 µg/mL in [5] came out at 53%. Moreover, in the series on Cercospora arachidicola, the inhibition at 50 µg/mL came to 22%.

(Values after patent publication US11166460B2, “α-amino acrylate microbicide, and preparation method therefor and uses thereof” (priority 2017, dated 2021).)
